Measured values from patent US20230416245A1, “ADENOSINE ANALOGS FOR THE TREATMENT OF DISEASE” (BIOINTERVENE, INC., priority 2020, published 2023).

Target: human adenosine A3 receptor (Homo sapiens (Human), UniProt P0DMS8)
Experiment: Intracellular cAMP levels (inhibition of forskolin-stimulated cAMP production)
Assay type: cell-based
Settings: for EC50: CHO cells expressing human adenosine A3 receptors, forskolin 10 μM; for CAMP Efficacy (%): maximal response as percentage of the response produced by 100 nM IB-MECA
Procedure, shortened: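 CHO-K1 cells stably expressing human A3 receptor were exposed to compound (0.1 nM–1 μM) for 5 min at 37 °C, then 10 μM forskolin for 10 min. cAMP measured by competitive enzyme immunoassay (OD 450 nm); EC50 from Hill fit of inhibition, maximum relative to 100 nM IB-MECA.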

human adenosine A3 receptor, sequence (P0DMS8 whole entry): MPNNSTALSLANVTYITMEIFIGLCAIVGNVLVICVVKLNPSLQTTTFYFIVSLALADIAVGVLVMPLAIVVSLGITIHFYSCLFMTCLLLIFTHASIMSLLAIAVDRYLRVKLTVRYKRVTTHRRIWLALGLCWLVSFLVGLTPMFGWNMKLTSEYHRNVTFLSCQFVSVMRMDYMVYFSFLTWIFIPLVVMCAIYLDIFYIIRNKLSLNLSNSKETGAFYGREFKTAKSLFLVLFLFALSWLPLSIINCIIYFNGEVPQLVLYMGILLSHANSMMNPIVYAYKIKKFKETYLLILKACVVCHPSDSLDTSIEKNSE

EC50 | CAMP Efficacy (%) | Structure (SMILES)
1.33 nM | 80.97% | O[C@@H]1[C@H](O)[C@@H]2C[C@@H]2[C@H]1n1cnc2c(NCC(F)F)nc(Cl)nc21 [Compound 35, (1R,2R,3S,4R,5S)-4-(2-chloro-6-((2,2-difluoroethyl)amino)-9H-purin-9-yl)bicyclo[3.1.0]hexane-2,3-diol]
8.6 nM | 77.6% | O[C@@H]1[C@H](O)[C@@H]2C[C@@H]2[C@H]1n1cnc2c(NCC(F)F)cc(Cl)nc21 [Compound 40, (1R,2R,3S,4R,5S)-4-(5-chloro-7-((2,2-difluoroethyl)amino)-3H-imidazo[4,5-b]pyridin-3-yl)bicyclo[3.1.0]hexane-2,3-diol]
> 10000 nM | 1% | CCNc1cc(C#CC2CC2)nc2c1ncn2[C@H]1[C@H](O)[C@H](O)[C@@H]2C[C@@H]21 [Compound 46, (1R,2R,3S,4R,5S)-4-(5-(cyclopropylethynyl)-7-(ethylamino)-3H-imidazo[4,5-b]pyridin-3-yl)bicyclo[3.1.0]hexane-2,3-diol]
> 10000 nM | 1% | Cc1c(Cl)nc2c(ncn2[C@H]2[C@H](O)[C@H](O)[C@@H]3C[C@@H]32)c1NCC(F)F [Compound 60, (1R,2R,3S,4R,5S)-4-(5-chloro-7-((2,2-difluoroethyl)amino)-6-methyl-3H-imidazo[4,5-b]pyridin-3-yl)bicyclo[3.1.0]hexane-2,3-diol]
